Laboratory results reported in ChEMBL document CHEMBL4673176, “Virulence attenuating combination therapy: a potential multi-target synergy approach to treat Pseudomonas aeruginosa infections in cystic fibrosis patients” (RSC Med Chem, 2020).

Key:
Pseudomonas aeruginosa [1] = assay: Antibacterial activity against Pseudomonas aeruginosa PAO1 infected in C57BL/6J mouse assessed as mouse survival at 100 uM administered intranasally at the time of infection and every 12 hrs and measured over 96 hrs; assay type: functional; conditions: PAO1, inhaled or nasal
[2] = Competitive inhibition of FAM-labelled PscF (69 to 85 residues) binding to Pseudomonas aeruginosa PscE/PscG by fluorescence polarization
[3] = target: T1, Transcriptional regulator MvfR (Pseudomonas aeruginosa PA14) (UniProt A0A072ZLE6); assay: Inhibition of PqsR in Pseudomonas aeruginosa PA14 assessed as potentiation of tobramycin-mediated reduction in biofilm CFU at 10 uM incubated for 24 hrs relative to tobramycin alone
T1 sequence (whole entry): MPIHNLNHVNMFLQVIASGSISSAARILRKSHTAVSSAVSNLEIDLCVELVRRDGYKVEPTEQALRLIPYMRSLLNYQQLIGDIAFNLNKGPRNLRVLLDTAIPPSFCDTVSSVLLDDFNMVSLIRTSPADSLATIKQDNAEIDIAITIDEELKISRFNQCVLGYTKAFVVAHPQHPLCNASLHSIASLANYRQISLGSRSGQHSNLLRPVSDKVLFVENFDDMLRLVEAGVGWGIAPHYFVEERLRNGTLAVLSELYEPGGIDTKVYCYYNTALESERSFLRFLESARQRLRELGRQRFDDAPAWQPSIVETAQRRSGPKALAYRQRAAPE

[4] = target: T1, Transcriptional regulator MvfR (Pseudomonas aeruginosa PA14); assay: Inhibition of PqsR in Pseudomonas aeruginosa PA14 assessed as potentiation of meropenem-mediated reduction in biofilm CFU at 10 uM incubated for 24 hrs relative to meropenem alone
[5] = Inhibition of PqsR/PqsD in Pseudomonas aeruginosa PA14 assessed as reduction in biofilm formation by crystal violet assay
Pseudomonas aeruginosa [6] = assay: Inhibition of quorum sensing system in Pseudomonas aeruginosa MCC-2080 assessed as reduction in biofilm formation incubated for 24 hrs by crystal violet staining based UV-Vis spectrophotometric method relative to control

Cc1cccc2c3c(ccc12)C1=C(C(=O)C3=O)[C@@H](C)CO1 [DIHYDROTANSHINONE I]
survival at 100 µM (Pseudomonas aeruginosa [1]): 90%
IC50 [2]: 0.68 µM

O=C(CSc1nc2cc([N+](=O)[O-])ccc2[nH]1)Nc1ccc(Oc2ccccc2)cc1
fold change (FC) [3]: 17
fold change (FC) [4]: 178

CS(=O)(=O)c1nccc(-n2cnnn2)n1
IC50 [5]: 100 µM

O=c1c(O)c(-c2ccccc2)oc2cc(O)cc(O)c12
IC85 (Pseudomonas aeruginosa [6]): 100 µM
